Data reported in patent US20100104566A1, “ANTITUMOR COMBINATION COMPRISING A MORPHOLINYL ANTHRACYCLINE AND AN ANTIBODY” (NERVIANO MEDICAL SCIENCES S.R.L., priority 2007, published 2010).

Tested on: Human prostate carcinoma DU145 cells
Assay: In vivo antitumor efficacy of nemorubicin in combination with bevacizumab (tumor growth delay)
Parameters: species or system Balb Nu/Nu, male mice (athymic mice)
Details: DU145 s.c. in athymic mice; for Time to reach 1 g: advanced tumors, bevacizumab 20 mg/kg i.p. day 9, 13, 17, 21, 25, 29, nemorubicin 0.065 mg/kg i.v. day 9, 16, 23; for T-C: delay vs control to reach 1 g, bevacizumab 20 mg/kg i.p., nemorubicin 0.065 mg/kg i.v. q7dx3
Protocol: Materials and Methods: Balb Nu/Nu, male mice (athymic mice from Harlan, Italy) were maintained in cages with paper filter covers, food and bedding sterilized and water acidified. Human prostate carcinoma DU145 cells (from American Type Culture Collection) were implanted subcutaneously in athymic mice (2.5×10^6/cells mice). […] Drug treatments were performed on advanced tumors (when the tumors were palpable). Nemorubicin and bevacizumab were prepared immediately before use ad administered to mice in a volume of 10 ml/kg. Nemorubicin was administered as hydrochloride salt intravenously at a dose of 0.065 mg/kg and treatments were repeated weekly for 3 weeks. Bevacizumab was administered intraperitoneally at a dose of 20 mg/kg on the days 9, 13, 17, 21, 25 and 29 from the day of cell injection. When both compounds were administered on the same day, bevacizumab was administered intraperitoneally immediately before the intravenous injection of nemorubicin. Tumor growth and net body weight were evaluated every 3 days. Tumor growth was assessed by caliper. The two diameters were recorded, and the tumor weight was calculated according to the following formula: length (mm)×width^2 (mm)/2. The effect of the antitumor treatment was determined as the delay in the onset of an exponential growth of tumors [see for reference, Anti Cancer Drugs 7: 437-60, 1996]. This delay (T-C value) was defined as the difference of the time (in days) required for the treatment group (T) and the control group (C) tumors to reach a predetermined size (e.g. 1 g). Toxicity was evaluated on the basis of the body weight reduction.

| Molecule | Time to reach 1 g | T-C |
| --- | --- | --- |
| COc1cccc2c1C(=O)c1c(O)c3c(c(O)c1C2=O)C[C@@](O)(C(=O)CO)C[C@@H]3O[C@H]1C[C@H](N2CCO[C@H](OC)C2)[C@H](O)[C@H](C)O1 [Nemorubicin, (8S-cis, 2″S)-7,8,9,10-tetrahydro-6,8,11-trihydroxy-8-(hydroxyacetyl)-1-methoxy-10-{[2,3,6-trideoxy-3-(2-methoxy-4-morpholinyl)-α-L-lyxo-hexopyranosyl]oxy}-5,12-naphthacenedione] | 18.95 days | 4.68 days |
| Bevacizumab: monoclonal antibody directed against the vascular endothelial growth factor (VEGF) | 21.31 days | 7.04 days |
